Results: patent publication US10702543B2, “Intranuclear protein transduction through a nucleoside salvage pathway” (The United States Government as represented by The …, priority 2007, dated 2020)

Experiments:
[1] = target: T1, ENT2 (Homo sapiens, UniProt Q14542); test: Inhibition of ENT2 by NBMPR (Ward et al.); format: biochemical
T1 sequence (Q14542 1-456): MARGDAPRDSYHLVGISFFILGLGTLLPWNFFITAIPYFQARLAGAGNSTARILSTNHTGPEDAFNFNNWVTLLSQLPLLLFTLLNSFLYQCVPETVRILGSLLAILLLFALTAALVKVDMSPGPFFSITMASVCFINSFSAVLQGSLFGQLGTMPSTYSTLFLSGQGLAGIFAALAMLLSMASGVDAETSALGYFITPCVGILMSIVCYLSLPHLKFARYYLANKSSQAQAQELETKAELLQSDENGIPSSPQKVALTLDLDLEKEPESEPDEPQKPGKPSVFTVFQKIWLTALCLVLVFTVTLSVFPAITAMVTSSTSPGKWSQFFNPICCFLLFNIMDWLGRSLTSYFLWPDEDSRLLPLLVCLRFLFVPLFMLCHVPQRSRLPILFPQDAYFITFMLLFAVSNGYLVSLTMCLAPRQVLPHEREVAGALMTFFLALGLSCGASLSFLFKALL

[2] = target: T1, ENT2; settings: read-out: Ki of NBMPR for ENT2; Ward et al., J. Biol. Chem. 2000; cited from earlier work
[3] = tested on: ENT subtype equilibrative, insensitive (ei); settings: low concentrations (e.g., <1 μM) of NBMPR; cited from earlier work
[4] = target: T2, ENT4 (Homo sapiens, UniProt Q7RTT9); settings: cited from earlier work
T2 sequence (Q7RTT9 1-530): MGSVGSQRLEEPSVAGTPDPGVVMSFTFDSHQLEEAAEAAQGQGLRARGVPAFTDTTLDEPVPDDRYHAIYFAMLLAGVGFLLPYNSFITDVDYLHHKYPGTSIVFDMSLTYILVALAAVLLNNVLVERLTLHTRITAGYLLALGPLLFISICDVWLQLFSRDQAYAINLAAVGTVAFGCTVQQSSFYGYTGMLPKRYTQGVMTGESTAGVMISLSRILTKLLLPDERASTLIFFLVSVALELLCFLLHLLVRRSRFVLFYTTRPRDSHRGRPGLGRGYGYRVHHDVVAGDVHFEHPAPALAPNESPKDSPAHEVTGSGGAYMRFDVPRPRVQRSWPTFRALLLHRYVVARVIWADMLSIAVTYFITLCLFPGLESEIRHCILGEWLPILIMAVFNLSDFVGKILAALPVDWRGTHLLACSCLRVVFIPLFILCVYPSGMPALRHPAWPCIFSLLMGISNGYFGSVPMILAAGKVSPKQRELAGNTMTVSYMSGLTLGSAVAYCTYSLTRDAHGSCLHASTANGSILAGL

[5] = tested on: cells in tissue culture; settings: cited from earlier work

Compound: O=[N+]([O-])c1ccc(CSc2ncnc3c2ncn3C2OC(CO)C(O)C2O)cc1 (stereo not drawn) [NBMPR, Nitrobenzylmercaptopurine riboside]
- ENT2 activity ([1]; at 10 μM NBMPR): retains moderate activity
- expected suppression of ENT2 activity ([1]; by 10 μM NBMPR): > 50%
- Ki [2]: 2.8 µM
- effect of NBMPR on the ei subtype [3]: unaffected
- inhibition of ENT4 by NBMPR [4]: weakly inhibited

Compound: mAb 3E10: monoclonal anti-DNA antibody produced by hybridoma 3E10, ATCC accession number PTA-2439
- harm to cells that it penetrates [5]: no harm
